SMILES strings stand for the structures.

Among the data in US10233173B2, “Substituted 1,2,3-triazoles as NR2B-selective NMDA modulators” (JANSSEN PHARMACEUTICA NV, priority 2016, dated 2019) are IC50 values, retold here.

human GluN1/GluN2B NMDA receptors, sequence (Q13224 27-1484, other chains not shown): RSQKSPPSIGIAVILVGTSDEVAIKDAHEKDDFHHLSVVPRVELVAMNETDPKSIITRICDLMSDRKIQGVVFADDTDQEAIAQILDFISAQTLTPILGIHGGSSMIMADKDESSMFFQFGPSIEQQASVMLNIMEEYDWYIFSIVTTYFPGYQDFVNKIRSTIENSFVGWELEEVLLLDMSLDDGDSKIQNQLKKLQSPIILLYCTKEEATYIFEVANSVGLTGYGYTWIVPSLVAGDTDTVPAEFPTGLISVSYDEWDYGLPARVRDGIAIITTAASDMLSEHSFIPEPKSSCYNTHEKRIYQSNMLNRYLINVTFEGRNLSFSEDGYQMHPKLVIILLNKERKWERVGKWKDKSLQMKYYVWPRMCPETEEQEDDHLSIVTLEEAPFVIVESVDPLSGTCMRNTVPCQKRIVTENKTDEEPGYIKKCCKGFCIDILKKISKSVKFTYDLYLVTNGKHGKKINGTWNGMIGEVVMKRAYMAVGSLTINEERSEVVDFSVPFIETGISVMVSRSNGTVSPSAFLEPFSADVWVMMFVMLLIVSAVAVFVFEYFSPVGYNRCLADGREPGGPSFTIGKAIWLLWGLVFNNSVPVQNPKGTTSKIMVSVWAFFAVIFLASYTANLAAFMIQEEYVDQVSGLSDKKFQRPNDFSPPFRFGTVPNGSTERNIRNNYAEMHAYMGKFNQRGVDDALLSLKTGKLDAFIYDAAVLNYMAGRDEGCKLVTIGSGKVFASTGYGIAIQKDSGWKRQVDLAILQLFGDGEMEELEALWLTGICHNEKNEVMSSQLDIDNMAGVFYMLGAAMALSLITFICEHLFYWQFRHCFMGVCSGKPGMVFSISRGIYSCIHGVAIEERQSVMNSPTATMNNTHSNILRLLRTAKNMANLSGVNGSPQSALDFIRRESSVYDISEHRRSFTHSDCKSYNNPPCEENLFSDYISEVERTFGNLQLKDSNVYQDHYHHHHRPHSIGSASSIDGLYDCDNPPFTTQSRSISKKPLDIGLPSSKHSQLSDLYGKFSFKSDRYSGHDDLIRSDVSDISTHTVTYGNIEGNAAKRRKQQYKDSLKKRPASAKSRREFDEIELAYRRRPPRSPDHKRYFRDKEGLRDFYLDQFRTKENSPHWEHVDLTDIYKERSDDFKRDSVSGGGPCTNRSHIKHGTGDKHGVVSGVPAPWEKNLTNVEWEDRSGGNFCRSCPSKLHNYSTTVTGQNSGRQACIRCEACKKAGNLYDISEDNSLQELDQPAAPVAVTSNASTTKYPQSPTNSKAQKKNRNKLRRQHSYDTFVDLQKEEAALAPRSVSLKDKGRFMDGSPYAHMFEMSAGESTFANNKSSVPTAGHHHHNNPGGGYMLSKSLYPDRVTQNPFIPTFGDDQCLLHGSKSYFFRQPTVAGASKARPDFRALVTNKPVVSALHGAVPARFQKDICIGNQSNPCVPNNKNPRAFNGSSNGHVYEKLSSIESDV

The assay concerns the target human GluN1/GluN2B NMDA receptors (Homo sapiens, UniProt Q05586+Q13224). Description: Cell-based calcium flux (FLIPR) assay on cloned human NR1/NR2B ion channels expressed in mammalian cells. The conditions noted are these: standard assay; glutamate at ~EC80; FLIPR calcium flux. In outline: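 Calcium influx followed by FLIPR fluorescence after 5 min compound exposure and a further 5 min co-agonist challenge: 10 μM glycine with glutamate at ~EC80 (standard) or EC40 (HTS).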
For orientation: Calcium assays in cells follow changes in intracellular calcium, usually with a dye or a luminescent sensor.
One may read the IC50 as the concentration that gives 50% inhibition. On to `Fc1ccc(-n2cc(COc3nccc(-c4ccccc4)n3)nn2)cc1OC(F)F` [Example 506, 2-[[1-[3-(Difluoromethoxy)-4-fluoro-phenyl]triazol-4-yl]methoxy]-4-phenyl-pyrimidine], for which the IC50 amounted to 9.75 µM.

In the case of `Fc1ccc(-n2cc(COc3ncc(N4CC(F)C4)cn3)nn2)cc1OC(F)F` [Example 507, 2-[[1-[3-(Difluoromethoxy)-4-fluoro-phenyl]triazol-4-yl]methoxy]-5-(3-fluoroazetidin-1-yl)pyrimidine], the IC50 turned out to be 0.008 µM. Turning to `Fc1ccc(-n2cc(COc3ncc(N4CC(F)(F)C4)cn3)nn2)cc1OC(F)F` [Example 508, 5-(3,3-Difluoroazetidin-1-yl)-2-[[1-[3-(difluoromethoxy)-4-fluoro-phenyl]triazol-4-yl]methoxy]pyrimidine], the IC50 worked out at 0.019 µM.

In the case of `Fc1ccc(-n2cc(COc3nccc(N4CC(F)C4)n3)nn2)cc1OC(F)F` [Example 510, 2-[[1-[3-(Difluoromethoxy)-4-fluoro-phenyl]triazol-4-yl]methoxy]-4-(3-fluoroazetidin-1-yl)pyrimidine], the IC50 is 0.025 µM. `Fc1ccc(-n2cc(COc3nccc(N4CC(F)(F)C4)n3)nn2)cc1OC(F)F` [Example 511, 4-(3,3-Difluoroazetidin-1-yl)-2-[[1-[3-(difluoromethoxy)-4-fluoro-phenyl]triazol-4-yl]methoxy]pyrimidine]: the IC50 came to 0.041 µM.

For `Fc1ccc(-n2cc(COc3nccc(N4CC[C@@H](F)C4)n3)nn2)cc1OC(F)F` [Example 512, (R)-2-[[1-[3-(Difluoromethoxy)-4-fluoro-phenyl]triazol-4-yl]methoxy]-4-[(3R)-3-fluoropyrrolidin-1-yl]pyrimidine], the IC50 amounted to 0.308 µM. As to `Cc1nc(OCc2cn(-c3ccc(F)c(OC(F)F)c3)nn2)ncc1Cl` [Example 513, 5-Chloro-2-[[1-[3-(difluoromethoxy)-4-fluoro-phenyl]triazol-4-yl]methoxy]-4-methyl-pyrimidine], the IC50 was found to be 0.004 µM.

`Cc1cnc(OCc2cn(-c3ccc(F)c(OC(F)F)c3)nn2)nc1N` [Example 514, 2-[[1-[3-(Difluoromethoxy)-4-fluoro-phenyl]triazol-4-yl]methoxy]-5-methyl-pyrimidin-4-amine]: the IC50 is 0.005 µM. Regarding `CNc1nc(OCc2cn(-c3ccc(F)c(OC(F)F)c3)nn2)ncc1C` [Example 515, 2-[[1-[3-(Difluoromethoxy)-4-fluoro-phenyl]triazol-4-yl]methoxy]-N,5-dimethyl-pyrimidin-4-amine], the IC50 came to 0.099 µM.

With `Cc1cnc(OCc2cn(-c3ccc(F)c(OC(F)F)c3)nn2)nc1N(C)C` [Example 516, 2-[[1-[3-(Difluoromethoxy)-4-fluoro-phenyl]triazol-4-yl]methoxy]-N,N,5-trimethyl-pyrimidin-4-amine], the IC50 amounted to 0.017 µM. Regarding `Fc1ccc(-n2cc(COc3ncc(F)c(NCC(F)F)n3)nn2)cc1OC(F)F` [Example 517, N-(2,2-Difluoroethyl)-2-[[1-[3-(difluoromethoxy)-4-fluoro-phenyl]triazol-4-yl]methoxy]-5-fluoro-pyrimidin-4-amine], the IC50 came out at 0.912 µM.

Regarding `CNc1nc(OCc2cn(-c3ccc(F)c(OC(F)F)c3)nn2)ncc1F` [Example 518, 2-[[1-[3-(Difluoromethoxy)-4-fluoro-phenyl]triazol-4-yl]methoxy]-5-fluoro-N-methyl-pyrimidin-4-amine], the 50% inhibitory concentration (IC50) was found to be 0.092 µM. Consider `Fc1ccc(-n2cc(COc3ncc(F)c(NC4CC4)n3)nn2)cc1OC(F)F` [Example 519, N-Cyclopropyl-2-((1-(3-(difluoromethoxy)-4-fluorophenyl)-1H-1,2,3-triazol-4-yl)methoxy)-5-fluoropyrimidin-4-amine], for which the IC50 came to 0.204 µM. On to `CNCc1ccnc(OCc2cn(-c3ccc(F)c(OC(F)F)c3)nn2)n1` [Example 520, 1-(2-((1-(3-(Difluoromethoxy)-4-fluorophenyl)-1H-1,2,3-triazol-4-yl)methoxy)pyrimidin-4-yl)-N-methylmethanamine], for which the IC50 is 0.672 µM.
